The test system of experiment [1] is Pyricularia oryzae. Kind of experiment: microbe, parasite or virus in culture. It counts as cell-based. The settings on record: 168 h, read-out: control.
The subject of experiment [2] is Alternaria solani. Kind of experiment: Alternaria solani (early blight of tomato/potato) mycelial radial growth on Potato Dextrose Agar. The settings on record: 168 h, read-out: control.
Method: Compounds were dissolved in 0.3% DMSO & then added to Potato Dextrose Agar medium just prior to dispensing it into Petri dishes. 5 ml medium with compound in the desired concentration was dispensed into 60 mm sterile petri-plates. After solidification each plate was seeded with 5 mm size mycelial disc taken form periphery of actively growing virulent culture plate. Plates were incubated in growth chambers at 25° C. temperature and 60% relative humidity for seven days and radial growth was measured.
In experiment [3] the test system is Phakopsora pachyrhizi. Kind of experiment: Phakopsora pachyrhizi test in soybean, preventive spray in greenhouse. It counts as in vivo. The note with it: preventive spray on soybean plants, inoculated one day after treatment, compared to the untreated check, read-out: control (efficacy from disease severity rating).
Experiment [4] deals with Corynespora cassiicola. Kind of experiment: Corynespora cassiicola (leaf spot of tomato) mycelial radial growth on Potato Dextrose Agar. The settings on record: 300 ppm; radial growth after seven days, 25° C., 70% relative humidity; compared to the untreated check. It counts as cell-based.

Consider seven compounds from US20210002232A1, “HETEROCYCLIC COMPOUNDS AS FUNGICIDES” (PI INDUSTRIES LTD., priority 2018, published 2021).

Structures are written as SMILES.

As to `COc1ccc(S(C)(=O)=Nc2ccc(C3=NOC(C(F)(F)F)N3)cc2)cc1` (centres unmarked) [Compound 16, (4-methoxyphenyl)(methyl)((4-(5-(trifluoromethyl)-4,5-dihydro-1,2,4-oxadiazol-3-yl)phenyl)imino)-λ^6-sulfanone], the inhibition of growth at 300 ppm in experiment [1] and in experiment [2] was > 70% in each case.
Consider `CS(=O)(=Nc1ccc(C2=NOC(C(F)(F)F)N2)cc1)c1ccccn1` (centres unmarked) [Compound 24, Methyl(pyridin-2-yl)((4-(5-(trifluoromethyl)-4,5-dihydro-1,2,4-oxadiazol-3-yl)phenyl)imino)-λ^6-sulfanone], for which the inhibition of growth at 300 ppm in experiment [1] and in experiment [2] was > 70% in each case. Further, the pest or weed control at 500 ppm in experiment [3] was > 90%.
Turning to `Cc1ccc(S(C)(=O)=NCc2ccc(C3=NOC(C(F)(F)F)N3)cc2)cc1` (centres unmarked) [Compound 30, methyl(p-tolyl)((4-(5-(trifluoromethyl)-4,5-dihydro-1,2,4-oxadiazol-3-yl)benzyl)imino)-λ^6-sulfanone], the inhibition of growth at 300 ppm in experiment [1] and in experiment [2] was > 70% each time. Also, the pest or weed control at 500 ppm in experiment [3] is > 90%.
Consider `CS(=O)(=NC(=O)c1ccc(-c2cc(C(F)(F)F)on2)cc1)c1ccc(C(F)(F)F)cc1` (centres unmarked) [Compound 59, N-(methyl(oxo)(4-(trifluoromethyl)phenyl)-λ^6-sulfaneylidene)-4-(5-(trifluoromethyl)isoxazol-3-yl)benzamide], for which the control entry in experiment [4] is “more than 70%”.
Regarding `CN(CCOc1ccccc1)C(=O)c1ccc(-c2coc(C(F)(F)F)n2)cc1` [Compound 67, N-methyl-N-(2-phenoxyethyl)-4-(2-(trifluoromethyl)oxazol-4-yl)benzamide], the inhibition of growth at 300 ppm in experiment [1] and in experiment [2] was > 70% each time. Also, the pest or weed control at 500 ppm in experiment [3] is > 90%.
Regarding `CN(C(=O)c1ccc(-c2coc(C(F)(F)F)n2)cc1)c1ccccc1` [Compound 82, N-methyl-N-phenyl-4-(2-(trifluoromethyl)oxazol-4-yl)benzamide], the inhibition of growth at 300 ppm in experiment [1] and in experiment [2] was > 70% each time. Besides, in experiment [3], the pest or weed control at 500 ppm was > 90%.
For the compound `CS(=O)(=NC(=O)c1ccc(-c2coc(C(F)(F)F)n2)cc1)c1ccccc1F` (centres unmarked) [Compound 84, N-((2-fluorophenyl)(methyl)(oxo)-λ^6-sulfaneylidene)-4-(2-(trifluoromethyl)oxazol-4-yl)benzamide], the inhibition of growth at 300 ppm in experiment [1] and in experiment [2] was > 70% in each case.
